Data on one molecule can be found in EP1103545B1, “2-(3,5-Bis-trifluoromethyl-phenyl)-N-methyl-N-(6-morpholin-4-yl-4-o-tolyl-pyridin-3-yl)-isobutyramide” (F. HOFFMANN-LA ROCHE AG, priority 1999, dated 2001).

The target of experiment [1] is T1, recombinant human NK1 receptor (Homo sapiens, UniProt P25103).
T1 construct: expressed in transfected cells; host or cells: CHO cells
The experiment is described as follows: Substance P induced Ca2+ influx in CHO cells (FLIPR), Schild analysis. The format is cell-based. The text has this: The activity in vitro was examined by studying its effect on substance P induced Ca^2+ influxes in CHO cells expressing the recombinant human NK1 receptor. In these cells, substance P causes a concentration dependent influx of Ca^2+ which can be measured using FLIPR technology.

The next experiment concerns the target NK2 receptors (Homo sapiens, UniProt P21452). Particulars: binding.
The subject of experiment [2] is foot-tapping behaviour induced in Gerbils. In words: Foot-tapping behaviour induced by i.c.v. injection of an NK1 receptor agonist. The format is in vivo.
In another experiment the target is NK3 receptors (Homo sapiens, UniProt P29371). The settings on record: binding.
For a further experiment, the system named is emesis induced in Ferets. In words: Emesis induced by various emetogens. Type of experiment: in vivo.
Experiment [3] has as its system motion sickness in the suncus murinus. The experiment is described as follows: Model of motion sickness. The format is in vivo. Particulars: po.

T1 sequence (P25103 whole entry): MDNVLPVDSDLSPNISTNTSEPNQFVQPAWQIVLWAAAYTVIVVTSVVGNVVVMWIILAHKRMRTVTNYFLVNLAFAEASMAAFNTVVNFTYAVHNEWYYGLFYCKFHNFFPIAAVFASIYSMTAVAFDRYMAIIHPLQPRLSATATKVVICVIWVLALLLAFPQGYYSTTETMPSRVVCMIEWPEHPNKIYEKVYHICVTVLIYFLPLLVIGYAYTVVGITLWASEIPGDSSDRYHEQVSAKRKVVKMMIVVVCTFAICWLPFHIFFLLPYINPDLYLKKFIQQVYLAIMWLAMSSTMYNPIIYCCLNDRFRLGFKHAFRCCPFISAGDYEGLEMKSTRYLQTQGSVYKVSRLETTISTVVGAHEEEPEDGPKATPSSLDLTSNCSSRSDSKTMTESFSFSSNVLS
Chain of NK3 receptors (P29371 whole entry): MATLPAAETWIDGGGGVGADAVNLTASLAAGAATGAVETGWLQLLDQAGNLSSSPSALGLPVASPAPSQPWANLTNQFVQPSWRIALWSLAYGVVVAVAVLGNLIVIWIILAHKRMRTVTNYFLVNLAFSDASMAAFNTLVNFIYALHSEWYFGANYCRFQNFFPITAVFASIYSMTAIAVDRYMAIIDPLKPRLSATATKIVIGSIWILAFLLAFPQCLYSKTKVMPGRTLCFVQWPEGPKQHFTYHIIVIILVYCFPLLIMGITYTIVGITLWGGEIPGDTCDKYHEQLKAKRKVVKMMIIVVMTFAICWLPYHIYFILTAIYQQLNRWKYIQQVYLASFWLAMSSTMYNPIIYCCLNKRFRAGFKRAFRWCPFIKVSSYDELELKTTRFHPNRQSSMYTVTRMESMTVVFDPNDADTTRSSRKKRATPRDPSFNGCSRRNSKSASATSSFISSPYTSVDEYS
Chain of NK2 receptors (P21452 whole entry): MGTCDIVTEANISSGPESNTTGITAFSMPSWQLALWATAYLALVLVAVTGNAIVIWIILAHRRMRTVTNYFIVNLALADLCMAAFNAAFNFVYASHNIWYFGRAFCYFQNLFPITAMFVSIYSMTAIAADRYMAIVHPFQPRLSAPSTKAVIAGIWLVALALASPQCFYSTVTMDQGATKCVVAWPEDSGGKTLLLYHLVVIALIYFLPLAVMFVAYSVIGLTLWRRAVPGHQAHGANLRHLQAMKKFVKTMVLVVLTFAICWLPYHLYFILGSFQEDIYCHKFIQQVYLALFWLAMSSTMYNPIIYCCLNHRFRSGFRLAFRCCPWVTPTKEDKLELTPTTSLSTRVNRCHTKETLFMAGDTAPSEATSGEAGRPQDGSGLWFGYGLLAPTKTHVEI

Turning to `Cc1ccccc1-c1cc(N2CCOCC2)ncc1N(C)C(=O)C(C)(C)c1cc(C(F)(F)F)cc(C(F)(F)F)c1` [compound of formula I, 2-(3,5-Bis-trifluoromethyl-phenyl)-N-methyl-N-(6-morpholin-4-yl-4-o-tolyl-pyridin-3-yl)-isobutyramide], the “selectivity for the NK1 receptor compared to over 50 other binding sites” value is reported as “over 2 orders of magnitude”. The “slope of the Schild regression” value in experiment [1] is 1.1. In addition, the Kb in experiment [1] (Schild plot, read-out: antagonist affinity (pA2) (converted)) is 1.26 nM. At NK2 receptors, the “selectivity for the NK1 receptor compared to NK2 receptors” value is listed as “over 2 orders of magnitude”. Further, the “total plasma concentration required to completely block the foot-tapping behaviour” value in experiment [2] (Gerbils) stood at 10 ng/mL. The functional half life in experiment [2] (Gerbils, persistence of antagonism of foot-tapping) worked out at 8 h. Further, the ED50 in experiment [2] (Meriones unguiculatus, po, read-out: dose calculated to inhibit 50 % of the foot-tapping behaviour) was 0.2 mg/kg. For the same molecule, the “selectivity for the NK1 receptor compared to NK3 receptors” value on NK3 receptors is given as “over 2 orders of magnitude”. Moreover, the “emesis induced by all emetogens” value in the experiment with emesis induced in Ferets (0.3 mg/kg p.o. 2 hours before emetogen (apomorphine, morphine, ipecacuanha, cisplatin, CuSO4)) is reported as “completely blocked”. The molecule further had an ED50 in the experiment with emesis induced in Ferets (Mustela putorius, po, apomorphine-induced emesis) of 0.1 mg/kg. Further, in experiment [3], the ED50 worked out at 0.2 mg/kg.
